# Source: patent US4260601A, “Chemical compounds” (Nyegaard & Co. A/S, priority 1979, dated 1981)
# Square brackets hold non-standard residues; d marks the D form. Peptide text beside a SMILES is read from it. pGlu = O=C1CC[C@@H](C(=O)O)N1
# Experiment: anorexigenic / biological activity of the peptide (no method described)
smiles,measurement,setting,value
"O=C(O)CNC(=O)[C@H](Cc1c[nH]cn1)NC(=O)[C@@H]1CCC(=O)N1 [synthetic peptide, L-(pyro)glutamyl-L-histidyl-glycine] ([pGlu]-His-Gly-OH)",biological activity of the synthetic peptide versus the biogenic material isolated from urine,comparison with biogenic material isolated from urine,comparable biological activity
same,anorexigenic properties,"statement in words, peptide found in the urine of patients suffering from severe anorexia",possesses interesting anorexigenic properties
